Measurements taken from publication PMC10154249, “Unique progerin C-terminal peptide ameliorates Hutchinson–Gilford progeria syndrome phenotype by rescuing BUBR1” (Nature Aging, 2023).

How the values were obtained:
senescent IMR90 cells = test: Ki67 immunofluorescence of DNA damage-induced senescent IMR90 cells; type: cell-based, human; settings: UPCP
Protocol: Fibroblasts from patients with HGPS were obtained from The Progeria Research Foundation Cell and Tissue Bank (http://www.progeriaresearch.org). The following fibroblasts were used: HGADFN003, HGADFN167, HGMDFN090 and HGFDFN168. Human dermal fibroblasts (GM00038 and AG09602) were obtained from Coriell Cell Repository (https://catalog.coriell.org). These cells were characterized by DNA fingerprinting and isozyme detection and were tested by a MycoBlue Mycoplasma Detector (Vazyme Biotech) to exclude mycoplasma contamination before the experiments. […] HGADFN003, HGADFN167, HGMDFN090, HGFDFN168, GM00038 and AG09602 were cultured in DMEM medium with 15% (v/v) fetal bovine serum (VivaCell). All cell lines were grown at 37 °C with 5% CO2 and IMR90, CRL-1474, HGADFN003, HGADFN167, HGMDFN090, HGFDFN168, GM00038 and AG09602 were cultured with 5% O2. For bleomycin-induced senescence, IMR90 cells were incubated with the culture medium containing 20 μg ml^–1 Bleomycin (Selleck, catalog no. S1214) for 2 h and analyzed 10 days later, or as otherwise indicated. For doxorubicin-induced senescence, IMR90 cells were treated twice with 100 nM Doxorubicin (Selleck, catalog no. S1208) with a 2 day interval and analyzed 10 days later, or as otherwise indicated. For ionizing radiation (IR)-induced senescence, IMR90 cells were exposed to 10 Gy Gamma rays, and analyzed 10 days later, or as otherwise indicated, the control IMR90 cells were mock irradiated. For etoposide-induced senescence, IMR90 cells incubated with the culture medium containing 10 μM Etoposide (Sigma, catalog no. E1383) for 48 h and analyzed 10 days later, or as otherwise indicated.
(§1) Immunofluorescence was performed as described previously. Cells were plated on cover slips in 12-well plates, left overnight before the treatment. Cells were fixed in 1% formaldehyde in culture medium for 10 min at 37 °C and permeabilized with 0.2% Triton X-100 in PBS for 10 min at room temperature. Cells were washed twice in PBS and blocked for 1 h with 5% BSA in PBS and then incubated with primary antibodies at 4 °C overnight, washed three times in PBS and incubated with secondary antibodies for 1 h at room temperature. Cell nuclei were counterstained with a 500 nM concentration of 4,6-diamidino-2-phenylindole (DAPI) (Sigma). Images were acquired by a fluorescence microscope (OLYMPUS FV-1000, Carl Zeiss LSM880 or Leica DMi8) and analyzed with software NIS-Elements AR v.5.0.1 (Nikon), FLUOVIEW v.4.2b (OLYMPUS), ZEN v.2.3 SP1 (Carl Zeiss) and Leica Application Suite X v.3.6.0.24 (Leica). Cells were quantified by investigators who were blinded to the identity of the analyzed cell.

BUBR1 = target: T1, BUBR1 (Homo sapiens, UniProt O60566); test: Pulldown assay of UPCP and BUBR1; type: binding; settings: pulldown (and MST); His-UPCP 10 μg with Flag beads-BUBR1, 16 h at 4 °C
T1 construct: made in house
Protocol: Cells were harvested and lysed in buffer A mixed with protease inhibitor cocktail tablet (Roche) after 48 h. […] The beads were washed three times using 1× Tris saline buffer (50 mM Tris-HCl (pH 7.4) and 150 mM NaCl)) for 8 min each. The bound proteins BUBR1 or PTBP1 were eluted with 3×Flag peptide (ApexBio) for 2 h at 4 °C. Finally, BUBR1 or PTBP1 was concentrated and recovered by using the Centrifugal Filters (Amicon Ultra).
A detailed description of the pulldown assay was described previously. His-UPCP fusion protein was expression in bacteria (BL21) and induced with 0.5 mM isopropyl-β-D-thio-galactoside for 16 h at 16 °C. The bacteria were harvested and lysed in TEN buffer (20 mM Tris-HCl (pH7.4), 0.1mM EDTA, 100 mM NaCl). […] His-UPCP was eluted with Imidazole eluent (50 mM NaH2PO4, 300 mM NaCl and 50 mM Imidazole) for 2 h at 4 °C and concentrated and recovered using centrifugal filters (Amicon Ultra). For the pulldown of His-UPCP and Flag-BUBR1 or Flag-PTBP1, 10 μg His-UPCP was incubated with Flag beads (Biotool, catalog no. B23102), Flag beads-BUBR1 or Flag beads-PTBP1 respectively for 16 h at 4 °C. The beads were washed three times with PBS and added to 1× loading buffer for western blot.

PTBP1 in HGADFN003 cells = test: PTBP1 nuclear membrane localization in HGADFN003 cells; type: cell-based, human; settings: HGADFN003, UPCP
Protocol: as §1

T1 sequence (O60566 whole entry): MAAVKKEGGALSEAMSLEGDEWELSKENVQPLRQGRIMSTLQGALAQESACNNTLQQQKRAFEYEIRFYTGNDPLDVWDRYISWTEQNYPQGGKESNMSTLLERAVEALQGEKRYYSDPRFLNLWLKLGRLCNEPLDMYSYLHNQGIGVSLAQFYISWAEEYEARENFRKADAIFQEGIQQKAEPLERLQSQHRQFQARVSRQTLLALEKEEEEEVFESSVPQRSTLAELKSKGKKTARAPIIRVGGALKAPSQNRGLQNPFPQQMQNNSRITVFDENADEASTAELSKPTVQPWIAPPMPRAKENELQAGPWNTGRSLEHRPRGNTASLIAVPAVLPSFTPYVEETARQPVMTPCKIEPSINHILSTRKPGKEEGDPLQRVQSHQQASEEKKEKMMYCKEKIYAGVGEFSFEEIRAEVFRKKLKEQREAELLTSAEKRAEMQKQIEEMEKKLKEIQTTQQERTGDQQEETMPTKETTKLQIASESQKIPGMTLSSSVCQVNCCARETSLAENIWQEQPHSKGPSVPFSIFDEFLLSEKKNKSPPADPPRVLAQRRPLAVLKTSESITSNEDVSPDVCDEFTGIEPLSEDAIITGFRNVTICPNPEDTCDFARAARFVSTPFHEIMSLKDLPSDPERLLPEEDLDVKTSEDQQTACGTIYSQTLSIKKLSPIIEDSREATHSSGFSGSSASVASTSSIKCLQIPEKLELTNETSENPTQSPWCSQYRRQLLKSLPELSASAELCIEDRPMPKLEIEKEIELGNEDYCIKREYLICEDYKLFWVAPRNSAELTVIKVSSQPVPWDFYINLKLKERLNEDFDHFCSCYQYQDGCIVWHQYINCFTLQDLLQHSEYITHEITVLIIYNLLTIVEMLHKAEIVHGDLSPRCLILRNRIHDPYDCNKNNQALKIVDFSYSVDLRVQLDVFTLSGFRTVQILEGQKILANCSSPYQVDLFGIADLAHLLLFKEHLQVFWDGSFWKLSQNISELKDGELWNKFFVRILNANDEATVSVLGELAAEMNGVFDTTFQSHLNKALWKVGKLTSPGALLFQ

Which results are given for “H-YGRKKRRQRRRYNLRSRTVLCGTCGQPADKASASGSGAQSPQNCSIM-OH (cysteines drawn unpaired) [UPCP, unique progerin C-terminal peptide]”?
Ki67 positive cells (senescent IMR90 cells; BLM (bleomycin 20 μg/mL 2 h), replicate 1): 14.5%; Ki67 positive cells (senescent IMR90 cells; BLM (bleomycin 20 μg/mL 2 h), replicate 2): 18.5%; Ki67 positive cells (senescent IMR90 cells; BLM (bleomycin 20 μg/mL 2 h), replicate 3): 21.5%; Ki67 positive cells (senescent IMR90 cells; Dox (doxorubicin 100 nM twice), replicate 1): 14%; Ki67 positive cells (senescent IMR90 cells; Dox (doxorubicin 100 nM twice), replicate 2): 22%; Ki67 positive cells (senescent IMR90 cells; Dox (doxorubicin 100 nM twice), replicate 3): 19%; Ki67 positive cells (senescent IMR90 cells; Eto (etoposide 10 μM 48 h), replicate 1): 18.5%; Ki67 positive cells (senescent IMR90 cells; Eto (etoposide 10 μM 48 h), replicate 2): 20%; Ki67 positive cells (senescent IMR90 cells; Eto (etoposide 10 μM 48 h), replicate 3): 14.5%; Ki67 positive cells (senescent IMR90 cells; IR (10 Gy), replicate 1): 19%; Ki67 positive cells (senescent IMR90 cells; IR (10 Gy), replicate 2): 15.5%; Ki67 positive cells (senescent IMR90 cells; IR (10 Gy), replicate 3): 17%; direct combination with BUBR1 (BUBR1): could combine with BUBR1 directly in vitro; PTBP1 nuclear membrane location cells (PTBP1 in HGADFN003 cells; replicate 1): 45%; PTBP1 nuclear membrane location cells (PTBP1 in HGADFN003 cells; replicate 2): 39%; PTBP1 nuclear membrane location cells (PTBP1 in HGADFN003 cells; replicate 3): 35%
